# Assay results published in patent US6852692B1, “Composition for promoting passive extension of bladder smooth muscle” (Shionogi & Co., Ltd., priority 1999, dated 2005).
# Legend:
# mesenteric artery = settings: Nakamura et al., Jpn. J. Pharmacol. 67, 259-262 (1995), FIG. 1; cited from earlier work
# urinary bladder strips [1] = experiment: Static tension and acetylcholine-induced contraction of rat urinary bladder strips (isometric transducer)
# Method: Urinary bladder strips were prepared in a manner similar to that of Example 1. The urinary bladder sections were attached to an isometric transducer FD pickup TB611T (manufactured by Nippon Kohden Corporation) in Tyrode's solution. Contraction of the urinary bladder was continuously measured. Firstly, 30 nM to 1 mM acetylcholine was added to the Tyrode's solution. […] In FIG. 3, the vertical axis indicates tension (unit: g), while the horizontal axis indicates time. Contraction induced by acetylcholine was confirmed, followed by washing out acetylcholine. Thereafter, 100 nM adrenomedullin was added to the Tyrode's solution. […] Further, 30 nM to 1 mM acetylcholine was added to the Tyrode's solution. As a result, recontraction of the urinary bladder occured.
# urinary bladder strips [2] = experiment: Extension of rat urinary bladder strips under 1 g tension (isotonic transducer); settings: 100 nM adrenomedullin in Tyrode's solution, tension 1 g, male rat bladder strips, repeated five times, FIG. 2
# Excerpt: 8 to 16 weeks old male rats were sacrificed by hammering their heads. Thereafter, the rats were decapitated, followed by exsanguination. The urinary bladders were isolated from the rats. Each isolated urinary bladder was cut into four portions, thereby obtaining urinary bladder strips (FIG. 1).
# The effect of adrenomedullin on the rat urinary bladder was examined by measuring contractions of the urinary bladder strips using an isotonic transducer TD-112S (manufactured Nippon Kohden Corporation) where the tension was 1 g.
# The urinary bladder strips were firstly immersed in 30 ml of Tyrode's solution with 100 nM adrenomedullin (experimental sample) or without it (control sample). In this situation, the sections were attached to the […] transducer where the tension was 1 g, to continuously measure relaxation of the urinary bladder. The composition of the Tyrode's solution is as follows: 139 mM NaCl, 2.7 mM KCl, 11.9 mM NaHCO3, 2.6 mM MgCl2.6H2O, 0.4 mM NaH2PO4.2H2O, 1.7 mM CaCl2, and 5.5 mM glucose; pH 7.4).
# The above-described experiment was repeated five times. Solid colored circles indicate the results of the experimental sample, while plain circles indicate averages of the control sample. Vertical bars indicate the standard deviation of a two-way analysis of variance. The vertical axis indicates the length of relaxation (mm), while the horizontal axis indicate time (minutes).
# urinary bladder = settings: Nishimura et al., British J. Pharmacology, 120, 193-200 (1997), FIG. 6; cited from earlier work
substance,measurement,setting,value
adrenomedullin: synthesized peptide consisting of an amino acid sequence from Tyr in position 1 to Tyr in position 50 of SEQ ID NO: 6 (rat-derived),extension of contracted mesenteric artery by addition of adrenomedullin,mesenteric artery,extended by addition of adrenomedullin in a concentration-dependent manner
same,contraction (static tension) of the urinary bladder after addition of adrenomedullin alone,"urinary bladder strips [1]; 100 nM adrenomedullin in Tyrode's solution, after washing out acetylcholine, FIG. 3",not contracted
same,contraction induced by acetylcholine in the presence of adrenomedullin versus acetylcholine alone,"urinary bladder strips [1]; 100 nM adrenomedullin, 30 nM to 1 mM acetylcholine",not significantly different
same,extension (length of relaxation) of the urinary bladder wall versus absence of adrenomedullin,urinary bladder strips [2],more extended
same,contraction or extension (active extension) of the urinary bladder on addition of adrenomedullin,urinary bladder,does not cause contraction or extension
